Experimental data: US20050226919A1, “Device for transdermal administration for the treatment of urinary tract disorders” (priority 2001, published 2005)

Legend:
[1] = Skin permeation across human skin (in vitro penetration assay); format: in vitro ADME
Experimental: (§1) The skin permeation of KMD 3213 was also evaluated on hairless mouse skin and human skin. Human skin penetration assays were performed as described by Tanojo et al. in Journal of Controlled Release 45 (1997), 41-47. The concentration of KMD 3213 was measured by HPLC with a Symetry Shield RP-8, 3.9*150 mm 5 μm column; T=35° C.; eluent: water/acetonitrile/trifluoracetic acid 800/200/1 (v/v/v); dectetion UV at 225 nm; flux rate 1.5 ml/min; injection volume: 100 μl at 23° C.

[2] = biological target: T1, α1a-receptor (Homo sapiens, UniProt P35348); details: Murata et al., Br. J. Pharmacol. (1999) 127, 19-26; cited from earlier work
T1 sequence (P35348 1-466): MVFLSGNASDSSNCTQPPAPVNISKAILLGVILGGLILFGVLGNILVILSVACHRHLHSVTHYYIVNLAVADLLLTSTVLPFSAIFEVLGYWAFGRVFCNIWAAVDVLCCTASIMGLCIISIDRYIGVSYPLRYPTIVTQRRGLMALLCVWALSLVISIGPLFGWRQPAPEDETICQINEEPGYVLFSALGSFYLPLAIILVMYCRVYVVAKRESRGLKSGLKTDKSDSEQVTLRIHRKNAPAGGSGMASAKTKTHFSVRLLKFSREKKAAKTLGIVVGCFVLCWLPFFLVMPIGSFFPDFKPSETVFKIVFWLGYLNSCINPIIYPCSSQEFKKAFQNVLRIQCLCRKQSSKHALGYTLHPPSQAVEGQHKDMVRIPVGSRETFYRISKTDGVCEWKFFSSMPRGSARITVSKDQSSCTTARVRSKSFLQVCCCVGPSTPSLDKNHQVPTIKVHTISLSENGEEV

[3] = Skin permeation across hairless mouse skin (horizontal diffusion cell); format: in vitro ADME
Experimental: as §1
The flux measurements on hairless mouse skin were conducted using a TTS area of 2.55 cm^2 fixed on mouse abdominal and back skin in a horizontal diffusion cell. Immediately thereafter the acceptor chamber of the cell was filled with phosphate buffer solution (0.066 molar) previously adjusted to 32±0.5° C. and pH 6.2, in an air-bubble free state, and the release medium thermostatted to 32±0.5° C. At the time of sampling (after 3, 6, 24 and 48 hours) the release medium is exchanged with fresh medium thermostatted at 32±0.5° C. KMD 3213 was measured with HPLC as explained above.

C[C@H](Cc1cc2c(c(C(N)=O)c1)N(CCCO)CC2)NCCOc1ccccc1OCC(F)(F)F [KMD 3213, (-)-(R)-1-(3-hydroxypropyl)-5-[2-[[2-[2-(2,2,2-trifluoroethoxy)phenoxy]ethyl]amino]propyl]indoline-7-carboxamide]
steady state flux rate on human skin [1]: 2.9 mg/20 cm^2 per day | α-adrenoceptor subtype specificity [2]: binding specifically to the α1a-receptor | steady state skin permeation rate on hairless mouse skin ([3]; hairless mouse skin, TTS area 2.55 cm^2, phosphate buffer pH 6.2, 32°C): approximately 2.7 mg/20 cm^2 per day | steady state flux rate through mouse skin ([3]; mouse skin, from the devices of the invention): 2.7 mg/day
